Results taken from patent US8334261B2, “Osteopenia animal model” (Oriental Yeast Co., Ltd., priority 2006, dated 2012).

Key:
Format in all cases: in vivo, mouse
[1] = tested on: GST-RANKL-administered, ovariectomized 7-week-old female C57BL/6N mice; test: Drug evaluation with a selective estrogen receptor modulator (raloxifene) in GST-RANKL/OVX mice
Text: In addition, PBS (i.p.) and ultrapure water (p.o.) were used as control substances for comparison with GST-RANKL and raloxifene, respectively, upon administration.
The serum collected from each mouse was subjected to measurement of serum bone resorption markers (Ca and TRAP-5b) and an osteogenesis marker (ALP). Each femur was subjected to measurement of the bone density, the bone mineral content, and the cortical bone thickness with pQCT at points 0.6, 0.8, 1.0 mm from the distal growth plate on the proximal side. In addition, image analysis was carried out with micro CT.

[2] = tested on: GST-RANKL-administered 7-week-old female C57BL/6N mice; test: Evaluation of a bone mass increase with low-dose PTH in GST-RANKL mice; settings: GST-RANKL 1 mg/kg i.p. 2 times
Method: GST-RANKL was intraperitoneally administered 2 times to groups of 7-week-old female C57BL/6N mice at 1 mg/kg every 24 hours. PTH was subcutaneously administered thereto at 40 or 80 μg/kg from 24 hours after the 2nd administration every 24 hours for 10 consecutive days. In addition, PBS was administered to a group serving as the control group for the GST-RANKL and PTH administration groups for comparison. The serum and femur were collected from each mouse 24 hours after the end of administration for 10 days.
The serum collected from each mouse was subjected to measurement of serum bone resorption markers (Ca and TRAP-5b) and an osteogenesis marker (ALP). Each femur was subjected to measurement of the total bone density, the cortical bone density, the cortical bone thickness, the cortical bone mineral content, and the cortical bone density in the diaphysis with pQCT at points 0.6, 0.8, and 1.0 mm […] the distal growth plate on the proximal side. In addition, image analysis was carried out with micro CT.

[3] = tested on: 7-week-old female C57BL/6N mice; test: Single-dose administration of GST-RANKL; settings: for femur bone density decrease vs control: single dose
Method: The bone resorption markers and the osteogenesis markers in the serum were measured 12, 24, and 48 hours thereafter. Blood sampling was carried out before and immediately after GST-RANKL administration and 2, 4, 8, 12, 24, 48, and 72 hours after administration, followed by measurement of the serum human RANKL concentration by ELISA. In addition, 24 and 48 hours after administration, the femur bone density was measured with pQCT.

[4] = tested on: 7-week-old female C57BL/6N mice; test: RANKL administration test (213, 426, 852 nmol GST-RANKL)
Method: GST-RANKL was separately administered 3 times via an intraperitoneal route to groups of 7-week-old female C57BL/6N mice (10 individuals each) at doses of 213 nmol, 426 nmol, and 852 nmol every 24 hours. Exsanguination was performed 1.5 hours after the 3rd administration. A group to which PBS was administered in the same manner as above was used as a control group for comparison. 213 nmol, 426 nmol and 852 nmol of GST-RANKL correspond to 10 μg, 20 μg and 40 μg, respectively.
The exsanguinated blood was subjected to measurement of serum bone resorption parameters (calcium, CTx, TRAP-5b) and serum osteogenesis parameters (osteocalcin and alkaline phosphatase (ALP)). Calcium was measured by the OCPC method (WAKO, 272-21801). CTx (Nordic Bioscience Diagnostics), TRAP-5b (IDS Ltd, SB-TR103), and osteocalcin (Biomedical Technologies Inc.) were measured by ELISA. ALP was measured by the Bessey-Lowry method (WAKO, 274-04401).
The femur and the tibia were collected from each exsanguinated mouse. Regarding the femur, the cancellous bone was subjected to bone density measurement with the use of pQCT at points 0.6 mm, 0.8 mm, and 1.0 mm from the distal growth plate on the proximal side. Measurement values were compared with those for a control group by the Dunnett method for testing.

[5] = tested on: 7-week-old male C57BL/6N mice; test: Evaluation of male mice
Method: GST-RANKL was intraperitoneally administered 3 times to groups of 7-week-old male C57BL/6N mice at 1 mg/kg every 24 hours. The femur and serum were collected from each mouse 1.5 hours after the 3rd administration and compared with those of the PBS administration group. Regarding bone metabolism markers, TRAP-5b, calcium (Ca), and alkaline phosphatase (ALP) in the serum were measured. Each femur was subjected to bone density measurement with pQCT and image analysis with micro CT.

mice = test: Double-dose administration of GST-RANKL at 0.5, 1 and 2 mg/kg; settings: 2 mg/kg compared with 0.5 mg/kg and 1 mg/kg
[6] = tested on: 7-week-old female C57BL/6 mice; test: Administration of GST-RANKL for 7 consecutive days
Method: GST-RANKL was intraperitoneally administered to groups of 7-week-old female C57BL/6 mice at 2 mg/kg/day for 7 consecutive days. The serum and femur were collected from each mouse 1.5 hours after the 7th administration. The serum and femur obtained from each mouse were subjected to measurement of serum markers and bone density measurement with pQCT, respectively.

[7] = GST-RANKL administration+OVX group, 1.0 mm

GST-RANKL: fused protein of Glutathione S-transferase with human RANKL residues 140-317, expressed in Escherichia coli, 47.0 kDa
serum ALP concentration vs PBS+Sham group ([1]; GST-RANKL administration+OVX group): tended to increase | cortical bone mineral content decrease vs PBS+Sham group [1, 7]: 49% | cortical bone thickness decrease vs PBS+Sham group [1, 7]: 49% | total bone density vs PBS+Sham group ([1]; GST-RANKL administration+OVX group, no significant difference): tended to decrease | cancellous bone density (pQCT) ([1]; among the all groups): no significant differences | cortical bone density in the diaphysis, decrease vs PBS control [2]: 3% | serum ALP concentration decrease ([3]; single dose 1 mg/kg): approximately 30% | serum Ca concentration ([3]; single dose 1 mg/kg i.p.): no changes | serum human RANKL concentration ([3]; single dose 1 mg/kg i.p., 24 hours later): undetectable | time of peak serum human RANKL concentration after administration ([3]; single dose 1 mg/kg i.p., ELISA): 4 h | serum TRAP-5b concentration, fold as high as control ([3]; single dose 1 mg/kg, 12 hours after administration): approximately 1.7 fold | femur bone density decrease vs control ([3]; 24 hours, 0.6 mm): approximately 4% | femur bone density decrease vs control ([3]; 24 hours, 0.8 mm): approximately 9% | femur bone density decrease vs control ([3]; 24 hours, 1.0 mm): approximately 12% | femur bone density decrease vs control ([3]; 48 hours, 0.6 mm): approximately 5% | femur bone density decrease vs control ([3]; 48 hours, 0.8 mm): approximately 9% | femur bone density decrease vs control ([3]; 48 hours, 1.0 mm): approximately 15% | serum CTx concentration ([4]; 213 nmol): No significant increases | serum TRAP-5b concentration ([4]; 213 nmol): No significant increases | serum calcium concentration ([4]; 213 nmol i.p. 3 times, p<0.05): significantly increased | femur bone density decrease (pQCT) ([4]; 213 nmol, 0.6 mm): 11% | femur bone density decrease (pQCT) ([4]; 213 nmol, 0.8 mm): 23% | femur bone density decrease (pQCT) ([4]; 213 nmol, 1.0 mm): 23% | femur bone density decrease (pQCT) ([4]; 426 nmol, 0.6 mm): 19% | femur bone density decrease (pQCT) ([4]; 426 nmol, 0.8 mm): 29% | femur bone density decrease (pQCT) ([4]; 426 nmol, 1.0 mm): 31% | serum CTx concentration ([4]; 426 nmol, p<0.01): significant increases | serum TRAP-5b concentration ([4]; 426 nmol, p<0.01): significant increases | serum calcium concentration ([4]; 426 nmol, p<0.01): obviously increased | femur bone density decrease (pQCT) ([4]; 852 nmol, 0.6 mm): 30% | femur bone density decrease (pQCT) ([4]; 852 nmol, 0.8 mm): 42% | femur bone density decrease (pQCT) ([4]; 852 nmol, 1.0 mm): 44% | serum CTx concentration ([4]; 852 nmol, p<0.01): significant increases | serum TRAP-5b concentration ([4]; 852 nmol, p<0.01): significant increases | serum calcium concentration ([4]; 852 nmol, p<0.01): obviously increased | image analysis with micro CT ([4]; 213 to 852 nmol): dose-dependent decreases in the bone density | serum ALP concentration ([5]; 1 mg/kg i.p. 3 times): no changes | serum TRAP-5b concentration increase ([5]; 1 mg/kg i.p. 3 times): approximately 65% | serum Ca concentration increase vs PBS group ([5]; 1 mg/kg i.p. 3 times, no significant difference): 7% | femur bone density decrease ([5]; 0.6 mm): approximately 6% | femur bone density decrease ([5]; 0.8 mm): approximately 10% | femur bone density decrease ([5]; 1.0 mm): approximately 15% | bone mass decreasing effects (mice): promoted | femur bone density decrease vs control ([6]; 2 mg/kg/day 7 days, 0.6 mm): approximately 21% | femur bone density decrease vs control ([6]; 2 mg/kg/day 7 days, 0.8 mm): approximately 32% | femur bone density decrease vs control ([6]; 2 mg/kg/day 7 days, 1.0 mm): approximately 47% | serum TRAP-5b concentration increase ([6]; 2 mg/kg/day 7 days, no significant difference): approximately 30% | serum ALP concentration increase ([6]; 2 mg/kg/day 7 days, p<0.02): approximately 30% | serum Ca concentration increase ([6]; 2 mg/kg/day i.p. 7 consecutive days, no significant difference): approximately 20%
